# Test system: MAb AGG-C1
# Experiment: Competitive inhibition ELISA validating the neoepitope specificity of MAb AGG-C1
# Assay type: binding, mouse
# Conditions: competitor 1.0-1000 nmol/ml, MAb AGG-C1 0.04 μg/ml, FIG. 5
# Protocol: Streptavidin-coated microtiter plates (Pierce, Rockford, Ill.) were coated with N-terminally biotinylated peptide aggc1 (b-aggc1) by incubating each well with 100 μl of b-aggc1 (100 ng/ml) for 1 h at room temperature. After washing 4 times with phosphate-buffered saline containing 0.01% Tween-20 (PBS-Tween), wells were blocked for 1 h at room temperature with 100 μl of PBS-Tween containing 2% BSA, followed by 4 washes with PBS-Tween.
# In order to validate the neoepitope nature of MAb AGG-C1, competition mixtures (100 μl) comprised of MAb AGG-C1 (0.04 μg/ml) and 1.0-1000 nmol/ml of the synthetic peptides GGLPLPRNITEGE (SEQ ID NO:22), GGLPLPRNITEGE ARGSVILTVK-CONH2 (SEQ ID NO:23), undigested aggrecan, or ADAMTS-4 digested aggrecan were preincubated for 1 h at room temperature. Mixtures were then transferred to b-aggc1 coated wells. After a further incubation for 1 h at room temperature, the plates were washed 4 times with PBS-Tween then incubated for 1 h at room temperature with 100 μl of peroxidase-conjugated secondary goat anti-mouse IgG (1:10,000). Following 4 final washes with PBS-Tween, the wells were incubated with TMB 1 component microwell peroxidase substrate (BioFX Laboratories, Owings Mills, Md.). Color development was terminated by the addition of 0.18 M H2SO4, and the absorbance was monitored spectrophotometrically at 450 nm.
row,Substance,competition for MAb AGG-C1 binding to biotinylated aggc1 peptide
1,"ADAMTS4 digested aggrecan: Bovine aggrecan digested with ADAMTS-4, used as ELISA competitor",Dose-dependent competition
2,GGLPLPRNITEGE (listed as Homo sapiens) [Synthetic peptide whose C-terminus corresponds to E373 of aggrecan core protein],Dose-dependent competition
3,GGPLPRNITEGEARGSVILTVK [Synthetic peptide spanning the aggrecanase cleavage site],did not compete
4,"undigested aggrecan: Intact bovine aggrecan, used as ELISA competitor",did not compete

# — patent US20050260733A1, “Proteases and uses thereof” (WYETH, priority 2004, published 2005)
